Patent EP4778929A1, “NOVEL TYPE I TOPOISOMERASE INHIBITOR, AND PREPARATION METHOD THEREFOR AND USE THEREOF” (priority 2023, dated 2025)

Test system: HCT116 cells
Assay: Inhibition of cell proliferation by CTG (CellTiter-Glo) luminescence assay
Type: cell-based
Settings: Homo sapiens, HCT-116; 72 h incubation, CellTiter-Glo; read-out: HCT116, IC50
Source text: Test Example 2. Determination of Compound-Mediated Inhibition of Cell Proliferation by CTG (CellTiter-Glo) Luminescence Assay
Principle: The Promega CellTiter-Glo™ luciferase reagent was used. Luciferase consumes ATP to generate light; metabolically active cells continuously produce ATP through respiration and other processes. After adding an equal volume of CellTiter-Glo™ reagent to the culture medium, the resulting luminescence is directly proportional to the ATP content, which in turn correlates with the number of viable cells. Thus, the assay quantifies compound-induced suppression of cell proliferation.
Experimental Procedure: HCT116 cells (ATCC) were revived in complete medium (McCoy's 5a + 10 % FBS). After two passages, exponentially growing cells were harvested, counted, and resuspended to the appropriate density. A 100 µL aliquot of cell suspension (2 000 cells per well) was seeded into 96-well plates and incubated overnight (37 °C, 5 % CO2, 100 % relative humidity). Test compounds were dissolved in DMSO to prepare 10 mM stock solutions and serially diluted 1:3 in DMSO to generate nine concentration steps. Each DMSO solution was further diluted 200-fold into medium; 25 µL of the resulting solutions were added to the cell plates (final DMSO concentration […]). After 72 h incubation (37 °C, 5 % CO2), 50 µL of CellTiter-Glo reagent was added per well. Plates were shaken gently, incubated for 30 min at room temperature in the dark, and luminescence was read on an EnVision multimode reader. Percent inhibition was calculated as: Inhibition % = (1−As/Ac) × 100, [formula] where As = signal from compound-treated wells and Ac = signal from DMSO-only control wells. Concentration-response data were fitted in Excel with the XLfit add-in using the four-parameter logistic equation: Y = Bottom + (Top−Bottom)/[1+((IC50/X))^(∧)HillSlope], [formula] to derive the IC50 value for each compound. Table 2. IC50 of compounds

Structure (SMILES) | IC50 [nM]
CC[C@@]1(O)C(=O)OCc2c1cc1n(c2=O)Cc2c-1c(=O)c1cc(F)ccc1n2[C@@H]1CCN(C2CCC(F)(F)CC2)C1 [Example 267, (S)-11-((R)-1-(4,4-difluorocyclohexyl)pyrrolidin-3-yl)-4-ethyl-8-fluoro-4-hydroxy-1H-pyrano[3,4:6,7]indolizino[2,1-b]quinoline-3,6,14(4H,11H,12H)-trione] | < 20
CCC1(O)C(=O)OCc2c1cc1n(c2=O)Cc2c-1c(=O)c1cc(F)c(CO)cc1n2C12CC(C1)C2 (stereo not drawn) [Example 327] | < 20
CC[C@@]1(O)C(=O)OCc2c1cc1n(c2=O)Cc2c-1c(=O)c1cc(F)c([C@H](O)C(F)(F)F)cc1n2C1CCCC1 (single isomer, unassigned) [Example 347] | < 20
CC[C@@]1(O)C(=O)OCc2c1cc1n(c2=O)Cc2c-1c(=O)c1cc(F)ccc1n2[C@@H]1CCN(C(C)C)C1 [Example 263, (S)-4-ethyl-8-fluoro-4-hydroxy-11-((R)-1-isopropylpyrrolidin-3-yl)-1H-pyrano[3,4:6,7]indolizino[2,1-b]quinoline-3,6,14 (4H,11H,12H)-trione] | < 20
CC[C@@]1(O)C(=O)OCc2c1cc1n(c2=O)Cc2c-1c(=O)c1cc(F)c(CC(C)O)cc1n2C1CCC(C)(C)CC1 (stereo partly drawn) [Example 317] | < 20
CC[C@@]1(O)C(=O)OCc2c1cc1n(c2=O)Cc2c-1c(=O)c1cc(F)ccc1n2[C@@H]1CCN(C2CC3(CCC3)C2)C1 [Example 270, (S)-4-ethyl-8-fluoro-4-hydroxy-11-((R)-1-(spiro[3.3]heptan-2-yl)pyrrolidin-3-yl)-1H-pyrano[3,4:6,7]indolizino[2,1-b] quinoline-3,6,14(4H,11H,12H)-trione] | < 20
CCC(CC)N1CC[C@@H](n2c3c(c(=O)c4cc(F)ccc42)-c2cc4c(c(=O)n2C3)COC(=O)[C@]4(O)CC)C1 [Example 261, (S)-4-ethyl-8-fluoro-4-hydroxy-11-((R)-1-(pentan-3-yl)pyrrolidin-3-yl)-1H-pyrano[3,4:6,7]indolizino[2,1-b]quinoline-3,6,14 (4H,11H,12H)-trione] | < 20
CC[C@@]1(O)C(=O)OCc2c1cc1n(c2=O)Cc2c-1c(=O)c1cc(F)c(N)cc1n2C1CC2(CCC2)C1 [Example 358] | < 20
CC[C@@]1(O)C(=O)OCc2c1cc1n(c2=O)Cc2c-1c(=O)c1cc(F)ccc1n2[C@@H]1CCN(CC(C)C)C1 [Example 260, (S)-4-ethyl-8-fluoro-4-hydroxy-11-((R)-1-isobutylpyrrolidin-3-yl)-1H-pyrano[3',4':6,7]indolizino[2,1-b]quinoline-3,6,14 (4H,11H,12H)-trione] | < 20
CC[C@@]1(O)C(=O)OCc2c1cc1n(c2=O)Cc2c-1c(=O)c1cc(F)ccc1n2C[C@H]1CCN(C2CC(F)(F)C2)C1 [Example 402] | < 20
CC[C@@]1(O)C(=O)OCc2c1cc1n(c2=O)Cc2c-1c(=O)c1cc(F)ccc1n2[C@@H]1CCN(C2CC3CC3C2)C1 (stereo partly drawn) [Example 273, (4S)-11-((3R)-1-(bicyclo[3.1.0]hexan-3-yl)pyrrolidin-3-yl)-4-ethyl-8-fluoro-4-hydroxy-1H-pyrano[3',4':6,7]indolizino[2,1-b]quinoline-3,6,14(4H,11H,12H)-trione] | < 20
CC[C@@]1(O)C(=O)OCc2c1cc1n(c2=O)Cc2c-1c(=O)c1cc(F)c(F)cc1n2[C@@H]1CCN(C)C1 [Example 277] | < 20
CC[C@@]1(O)C(=O)OCc2c1cc1n(c2=O)Cc2c-1c(=O)c1cc(F)c(Cl)cc1n2[C@@H]1CCN(C)C1 [Example 283] | < 20
CC[C@@]1(O)C(=O)OCc2c1cc1n(c2=O)Cc2c-1c(=O)c1cc(F)c(Cl)cc1n2[C@@H]1CCN(C2CCC2)C1 [Example 282] | < 20
CC[C@@]1(O)C(=O)OCc2c1cc1n(c2=O)Cc2c-1c(=O)c1cc(F)ccc1n2[C@@H]1CCN(C2CC(C)(C)C2)C1 [Example 254, (S)-4-ethyl-8-fluoro-4-hydroxy-11-((R)-1-(3,3-dimethylcyclobutyl)pyrrolidin-3-yl)-1,12-dihydro-14H-pyrano[3',4':6,7]indolizino[2,1-b]quinoline-3,6,14(4H,11H)-trione] | < 20
CC[C@@]1(O)C(=O)OCc2c1cc1n(c2=O)Cc2c-1c(=O)c1cc(F)ccc1n2[C@@H]1CCN(C2CC(F)(F)C2)C1 [Example 255, (S)-4-ethyl-8-fluoro-4-hydroxy-11-((R)-1-(3,3-difluorocyclobutyl)pyrrolidin-3-yl)-1,12-dihydro-14H-pyrano[3',4':6,7]indolizino[2,1-b]quinoline-3,6,14(4H,11H)-trione] | < 20
CC[C@@]1(O)C(=O)OCc2c1cc1n(c2=O)Cc2c-1c(=O)c1cc(F)c(CO)cc1n2C1CC2(CCC2)C1 [Example 312] | < 20
CC[C@@]1(O)C(=O)OCc2c1cc1n(c2=O)Cc2c-1c(=O)c1cc(F)ccc1n2C[C@H]1CCN(C(C)C)C1 [Example 404] | < 20
CC[C@@]1(O)C(=O)OCc2c1cc1n(c2=O)Cc2c-1c(=O)c1cc(F)ccc1n2[C@H]1CCCN(C2CC(F)(F)C2)C1 [Example 372] | < 20
CC[C@@]1(O)C(=O)OCc2c1cc1n(c2=O)Cc2c-1c(=O)c1cc(F)c(N)cc1n2C12CC(C1)C2 [Example 359] | < 20
CCCN1CC[C@@H](n2c3c(c(=O)c4cc(F)ccc42)-c2cc4c(c(=O)n2C3)COC(=O)[C@]4(O)CC)C1 [Example 258, (S)-4-ethyl-8-fluoro-4-hydroxy-11-((R)-1-n-propylpyrrolidin-3-yl)-1,12-dihydro-14H-pyrano[3',4':6,7]indolizino[2,1-b] quinoline-3,6,14(4H,11H)-trione] | < 20
CC[C@@]1(O)C(=O)OCc2c1cc1n(c2=O)Cc2c-1c(=O)c1cc(F)c(N)cc1n2-c1cc(C)cc(C)c1 [Example 350] | < 20
CC[C@@]1(O)C(=O)OCc2c1cc1n(c2=O)Cc2c-1c(=O)c1cc(F)ccc1n2[C@@H]1CCN(C2CC3(CC3)C2)C1 [Example 271, (S)-4-ethyl-8-fluoro-4-hydroxy-11-((R)-1-(spiro[2.3]hexan-5-yl)pyrrolidin-3-yl)-1H-pyrano[3',4':6,7]indolizino[2,1-b]quinoline-3,6,14(4H,11H,12H)-trione] | < 20
CC[C@@]1(O)C(=O)OCc2c1cc1n(c2=O)Cc2c-1c(=O)c1cc(F)ccc1n2[C@@H]1CCN(C2CC2)C1 [Example 274, (4S)-11-((3R)-1-cyclopropylpyrrolidin-3-yl)-4-ethyl-8-fluoro-4-hydroxy-1H-pyrano[3',4':6,7]indolizino[2,1-b]quinoline-3,6,14(4H,11H,12H)-trione] | < 20
CCN1CC[C@@H](n2c3c(c(=O)c4cc(F)ccc42)-c2cc4c(c(=O)n2C3)COC(=O)[C@]4(O)CC)C1 [Example 251, (S)-4-ethyl-8-fluoro-4-hydroxy-11-((R)-1-ethylpyrrolidin-3-yl)-1,12-dihydro-14H-pyrano[3',4':6,7]indolizino[2,1-b] quinoline-3,6,14(4H,11H)-trione] | < 20
CC[C@@]1(O)C(=O)OCc2c1cc1n(c2=O)Cc2c-1c(=O)c1cc(F)c(C)cc1n2[C@@H]1CCN(C2CC(F)(F)C2)C1 [Example 280] | < 20
CC[C@@]1(O)C(=O)OCc2c1cc1n(c2=O)Cc2c-1c(=O)c1cc(F)ccc1n2[C@@H]1CCCN(C2CCCC2)C1 [Example 370] | < 20

Test system: not listed separately
Assay: in vivo
Settings: mouse, iv, 1 mg/kg
Method: Test Example 3. Pharmacokinetic Study for Determining Compound Concentrations in Mice by LC-MS/MS
Principle: LC-MS/MS is used to quantify the plasma concentrations of the test article at successive time points, generating an in-vivo pharmacokinetic profile.
Procedure: The test compound was dissolved in DMSO to prepare a 10 mg/mL stock solution. This stock was further diluted to 1 mg/mL with a vehicle consisting of 10 % DMSO + 10 % Solutol HS-15 + 80 % saline. Male CD-1 mice (JH Laboratory Animal Co., LTD) were employed; six animals were assigned per compound group. […] Serial blood samples (~50 µL whole blood, K2EDTA anticoagulant) were collected at 0.083, 0.25, 0.5, 1, 2, 4, 8 and 24 h (three mice per time point in a crossover design). Blood was centrifuged at 6 000 g for 5 min at 4 °C; plasma was harvested and stored at -70 °C until analysis. Plasma drug concentrations were determined by LC-MS/MS.
Calibration Curve and QC Preparation: Working solutions were prepared by dilution with MeOH:H2O (1:1). For each calibration or QC level, 3 µL of working solution was spiked into 57 µL of blank mouse plasma.
Sample Processing: To 30 µL of plasma was added 200 µL of methanol containing the internal standard (propranolol, 40 ng mL^-1). After vortex-mixing for 1 min, the mixture was centrifuged at 12 000 rpm for 10 min. A 100 µL aliquot of the supernatant was transferred to a clean plate for injection.
Pharmacokinetic Analysis: Concentration-time data were analyzed with WinNonlin 8.2 using a non-compartmental approach to derive PK parameters including Cmax, Tmax, AUC and terminal elimination half-life (t1/2). AUC was calculated by the linear-up/log-down trapezoidal method. Table 3. Pk parameters of compounds

Structure (SMILES) | AUC(0-t) at 24 h [ng·h/mL] | Cmax [ng/mL] | clearance [mL/min/kg] | half-life [min]
CCc1c2c(nc3ccc(O)cc13)-c1cc3c(c(=O)n1C2)COC(=O)[C@]3(O)CC [SN38] | 103 | 278 | 163 | 34

Same assay, conditions: mouse, po, 10 mg/kg

Structure (SMILES) | AUC(0-t) at 24 h [ng·h/mL] | Cmax [ng/mL]
CCc1c2c(nc3ccc(O)cc13)-c1cc3c(c(=O)n1C2)COC(=O)[C@]3(O)CC [SN38] | 0.23 | 1.87
